Experimental data reported in ChEMBL document CHEMBL4190331, “Discovery of Potent EV71 Capsid Inhibitors for Treatment of HFMD” (ACS Med Chem Lett, 2017).
Activity calls are given as the source filed them. No cut-off for these calls is given here.

Tests used:
[1] = Cytotoxicity against human RD cells assessed as reduction in cell viability after 72 hrs by CCK-8 assay
[2] = AUC in CD-1 mouse at 5 mg/kg, ip administered as single dose; format: ADME, organism-based; conditions: in vivo
[3] = Volume of distribution in CD-1 mouse at 2 mg/kg, iv administered as single dose; format: ADME, organism-based; conditions: in vivo
[4] = AUC in CD-1 mouse at 2 mg/kg, iv administered as single dose; format: ADME, organism-based; conditions: in vivo
[5] = Tmax in CD-1 mouse at 5 mg/kg, ip administered as single dose; format: ADME, organism-based; conditions: in vivo
[6] = Cmax in CD-1 mouse at 5 mg/kg, ip administered as single dose; format: ADME, organism-based; set-up: dose 5 mg/kg, route intraperitoneal; conditions: in vivo
[7] = Elimination half life in CD-1 mouse at 2 mg/kg, iv administered as single dose; format: ADME, organism-based; conditions: in vivo, read-out: beta t1/2 (converted)
[8] = […] bioavailability in CD-1 mouse at 5 mg/kg, ip administered as single dose; format: ADME, organism-based; conditions: in vivo, intraperitoneal
[9] = Clearance in CD-1 mouse at 2 mg/kg, iv administered as single dose; format: ADME, organism-based; conditions: in vivo
[10] = Stability in mouse liver microsomes; format: ADME, microsome
Enterovirus A71 [11] = experiment: Antiviral activity against EV71 695F infected in ICR mouse assessed as effect on clinical score at 0.4 mg/kg, ip qd administered for 7 days dosed prior to viral infection measured for 2 weeks; format: functional, organism-based
Enterovirus A71 [12] = experiment: Antiviral activity against EV71 695F infected in ICR mouse assessed as protection against viral infection by measuring mouse survival at 0.4 mg/kg, ip qd administered for 7 days dosed prior to viral infection measured on day 14 relative to control; format: functional; conditions: Enterovirus A
Enterovirus A71 [13] = experiment: Antiviral activity against EV71 695F infected in ICR mouse assessed as decrease in body weight loss at 0.4 mg/kg, ip qd administered for 7 days dosed prior to viral infection measured for 2 weeks; format: functional, organism-based
[14] = […] bioavailability in CD-1 mouse at 5 mg/kg administered as single dose; format: ADME, organism-based; conditions: in vivo, po
[15] = AUC in CD-1 mouse at 5 mg/kg, po administered as single dose; format: ADME, organism-based; conditions: in vivo
[16] = Tmax in CD-1 mouse at 5 mg/kg, po administered as single dose; format: ADME, organism-based; conditions: in vivo
[17] = biological target: Voltage-gated inwardly rectifying potassium channel KCNH2 (Homo sapiens, UniProt Q12809); experiment: Inhibition of human ERG expressed in CHO-K1 cells by Qpatch assay
Sequence of Voltage-gated inwardly rectifying potassium channel KCNH2 (Q12809 whole entry): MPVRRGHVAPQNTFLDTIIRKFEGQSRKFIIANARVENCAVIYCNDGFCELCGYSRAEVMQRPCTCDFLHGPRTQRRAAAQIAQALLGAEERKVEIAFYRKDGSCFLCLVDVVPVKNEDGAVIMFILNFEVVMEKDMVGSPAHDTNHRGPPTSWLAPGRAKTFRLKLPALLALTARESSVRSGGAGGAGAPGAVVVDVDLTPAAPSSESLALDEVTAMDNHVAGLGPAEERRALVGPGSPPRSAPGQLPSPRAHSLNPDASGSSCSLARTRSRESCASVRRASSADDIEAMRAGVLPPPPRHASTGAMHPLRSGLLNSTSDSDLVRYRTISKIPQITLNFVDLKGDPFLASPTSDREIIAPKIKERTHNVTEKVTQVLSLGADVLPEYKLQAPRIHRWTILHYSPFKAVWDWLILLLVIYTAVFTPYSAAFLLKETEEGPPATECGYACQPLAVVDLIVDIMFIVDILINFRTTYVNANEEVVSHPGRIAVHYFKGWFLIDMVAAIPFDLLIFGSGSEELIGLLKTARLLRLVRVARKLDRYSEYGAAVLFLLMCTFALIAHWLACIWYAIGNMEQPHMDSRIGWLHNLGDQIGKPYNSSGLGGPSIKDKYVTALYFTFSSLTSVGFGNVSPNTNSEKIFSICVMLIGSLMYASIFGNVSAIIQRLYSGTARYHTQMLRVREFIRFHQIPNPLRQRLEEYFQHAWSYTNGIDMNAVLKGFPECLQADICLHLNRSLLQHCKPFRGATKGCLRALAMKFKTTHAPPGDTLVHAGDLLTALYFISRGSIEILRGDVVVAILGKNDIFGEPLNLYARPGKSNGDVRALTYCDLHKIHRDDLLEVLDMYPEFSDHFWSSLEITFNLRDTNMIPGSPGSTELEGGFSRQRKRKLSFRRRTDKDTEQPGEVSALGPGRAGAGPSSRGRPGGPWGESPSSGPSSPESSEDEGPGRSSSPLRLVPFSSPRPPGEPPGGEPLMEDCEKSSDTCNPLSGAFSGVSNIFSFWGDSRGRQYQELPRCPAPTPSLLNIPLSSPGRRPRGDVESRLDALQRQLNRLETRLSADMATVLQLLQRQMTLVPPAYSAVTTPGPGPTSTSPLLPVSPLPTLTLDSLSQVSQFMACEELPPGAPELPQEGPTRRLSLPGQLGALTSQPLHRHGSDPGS

[18] = Cmax in CD-1 mouse at 5 mg/kg, po administered as single dose; format: ADME, organism-based; set-up: dose 5 mg/kg, route oral; conditions: in vivo
Mus musculus [19] = experiment: Toxicity in ICR mouse infected with EV71 695F assessed as death at 100 mg/kg, ip qd administered for 7 days measured on day 5; format: organism-based; conditions: in vivo, 168 h
Mus musculus [20] = experiment: Toxicity in ICR mouse infected with EV71 695F assessed as death at 50 mg/kg, ip qd administered for 7 days measured on day 6; format: organism-based; conditions: in vivo, 168 h
Enterovirus A71 [21] = experiment: Antiviral activity against EV71 695F infected in ICR mouse assessed as effect on clinical score at 10 mg/kg, ip qd administered for 7 days dosed after viral infection measured for 2 weeks; format: functional, organism-based
Enterovirus A71 [22] = experiment: Antiviral activity against EV71 695F infected in ICR mouse assessed as protection against viral infection by measuring mouse survival at 10 mg/kg, ip qd administered for 7 days dosed after viral infection measured for 2 weeks relative to control; format: functional; conditions: Enterovirus A
Enterovirus A71 [23] = experiment: Antiviral activity against EV71 695F infected in ICR mouse assessed as decrease in body weight loss at 10 mg/kg, ip qd administered for 7 days dosed after viral infection measured for 2 weeks; format: functional, organism-based
Enterovirus A71 [24] = experiment: Antiviral activity against EV71 695F infected in ICR mouse assessed as decrease in body weight loss at 10 mg/kg, ip qd administered for 7 days dosed prior to viral infection measured for 2 weeks; format: functional, organism-based
Enterovirus A71 [25] = experiment: Antiviral activity against EV71 695F infected in ICR mouse assessed as protection against viral infection by measuring mouse survival at 10 mg/kg, ip qd administered for 7 days dosed prior to viral infection measured for 2 weeks relative to control; format: functional; conditions: Enterovirus A
Enterovirus A71 [26] = experiment: Antiviral activity against EV71 695F infected in ICR mouse assessed as effect on clinical score at 10 mg/kg, ip qd administered for 7 days dosed prior to viral infection measured for 2 weeks; format: functional, organism-based

SMILES	CC50 at 72 h ([1]; RD cells)	AUC [2]	Vd [3]	AUC [4]	Tmax [5]	Cmax [6]	half-life [7]	bioavailability [8]	clearance [9]	further results
CCO/N=C(\CC)c1ccc(OCCCCCN2CCN(c3ccnc(N)c3)S2(=O)=O)cc1	> 100 µM	–	–	–	–	–	–	–	–	–
CCO/N=C1\CCCc2cc(OCCCCCN3CCN(c4ccnc(N)c4)S3(=O)=O)ccc21	> 100 µM	–	–	–	–	–	–	–	–	–
CCO/N=C/c1ccc(OCCC(C)CCN2CCN(c3ccnc(N)c3)C2=O)cc1 (configuration not stated)	–	1.71 µM·h	2.4 L/kg	0.371 µM·h	0.3 h	1560 nM	0.3 h	92%	105 mL/min/kg	CC50 at 72 h ([1]; rd): 5 µM
O=C1CN(c2ccncc2)CCN1CCCCCOc1ccc(-c2ccc(Cl)cc2)cc1	–	8.95 µM·h	10 L/kg	3.34 µM·h	2 h	1260 nM	6 h	112%	21 mL/min/kg	CC50 at 72 h ([1]; rd): 3.2 µM; Stability [10]: 40 to 50 µL/min/mg
CCn1ncc2cc(OCCCCCN3CCN(c4ccnc(N)c4)S3(=O)=O)ccc21	> 100 µM	–	–	–	–	–	–	–	–	–
O=C1N(CCCCc2cc3cc(-c4ccc(Cl)cc4)ccc3o2)CCN1c1ccncc1	4.3 µM	–	–	–	–	–	–	–	–	–
O[C@H]1[C@H]2c3cc4c(cc3CN3CCC(=C[C@@H]1O)[C@H]23)OCO4 [LYCORINE]	–	–	–	–	–	–	–	–	–	Activity (Enterovirus A71 [11]): Active; survival at 0.4 mg/kg (Enterovirus A71 [12]): 30%; Activity (Enterovirus A71 [13]): Active
O=C1N(CCCCc2nc3cc(-c4ccc(Cl)cc4)ccc3o2)CCN1c1ccncc1	> 100 µM	–	–	–	–	–	–	–	–	–
CCc1noc2cc(OCCCCCN3CCN(c4ccnc(N)c4)S3(=O)=O)ccc12	> 100 µM	–	–	–	–	–	–	–	–	–
CCn1ccc2cc(OCCCCCN3CCN(c4ccnc(N)c4)S3(=O)=O)ccc21	> 100 µM	–	–	–	–	–	–	–	–	–
O=S1(=O)N(CCCCCOc2ccc(-c3ccc(Cl)cc3)cc2)CCN1c1ccncc1	> 100 µM	9.01 µM·h	5 L/kg	5.71 µM·h	2 h	682 nM	6 h	63%	12 mL/min/kg	bioavailability [14]: 43%; AUC [15]: 6.17 µM·h; Stability [10]: < 10 µL/min/mg; Tmax [16]: 2 h; IC50 [17]: > 30 µM; Cmax [18]: 617 nM
O=C1N(CCCCCOc2ccc(-c3ccc(Cl)cc3)cc2)CCN1c1ccncc1	> 100 µM	4.28 µM·h	9 L/kg	2.73 µM·h	2 h	453 nM	4 h	64%	28 mL/min/kg	Stability [10]: 40 to 50 µL/min/mg
CCO/N=C(\C)c1ccc(OCCCCCN2CCN(c3ccnc(N)c3)S2(=O)=O)cc1	> 100 µM	–	–	–	–	–	–	–	–	–
NC(=O)c1ncn([C@@H]2O[C@H](CO)[C@@H](O)[C@H]2O)n1 [RIBAVIRIN]	–	–	–	–	–	–	–	–	–	Activity (Mus musculus [19]): Toxic; Activity (Mus musculus [20]): Toxic
O=C1N(CCCCC2CCc3cc(-c4ccc(Cl)cc4)ccc3O2)CCN1c1ccncc1 (configuration not stated)	–	23.2 µM·h	3 L/kg	11 µM·h	1 h	3360 nM	5 h	86%	6 mL/min/kg	CC50 at 72 h ([1]; rd): 3.4 µM; Stability [10]: 40 to 50 µL/min/mg
CCO/N=C/c1ccc(OCCCCCN2CCN(c3ccnc(N)c3)S2(=O)=O)cc1	–	2.45 µM·h	3.2 L/kg	0.592 µM·h	0.5 h	1440 nM	1.6 h	79%	36 mL/min/kg	CC50 at 72 h ([1]; rd): > 100 µM
Nc1cc(N2CCN(CCCCCOc3ccc(-c4ccc(Cl)cc4)cc3)S2(=O)=O)ccn1	> 100 µM	–	–	–	–	–	–	–	–	–
CCO/N=C1\CCc2cc(OCCCCCN3CCN(c4ccnc(N)c4)S3(=O)=O)ccc21	–	3.87 µM·h	2.8 L/kg	0.821 µM·h	0.7 h	2150 nM	1.5 h	88%	34 mL/min/kg	Activity (Enterovirus A71 [21]): Active; survival at 10 mg/kg (Enterovirus A71 [22]): 100%; Activity (Enterovirus A71 [23]): Active; Activity (Enterovirus A71 [24]): Active; survival at 10 mg/kg (Enterovirus A71 [25]): 100%; CC50 at 72 h ([1]; rd): 42 µM; Activity (Enterovirus A71 [26]): Active
